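Where inhibition never reached the appropriate level, the endpoint shown equals the highest concentration tested. Otherwise, values were interpolated linearly from a five-concentration, 48-hour dose response in 96-well plates. TGI is the concentration that stops growth completely.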
Experiments:
Experiment in all cases: NCI anticancer screen, dose series, 48 h
[1] = tested on: EKVX NSCLC
[2] = tested on: IGROV1 ovarian
[3] = tested on: HOP-92 NSCLC
[4] = tested on: KM12 colon
[5] = tested on: NCI-H522 lung
[6] = tested on: 786-0 renal
[7] = tested on: HCC-2998 colon
[8] = tested on: MDA-MB-435
[9] = tested on: MALME-3M melanoma
[10] = tested on: A549 NSCLC
[11] = tested on: NCI-H460 lung
[12] = tested on: T-47D breast
[13] = tested on: HL-60(TB) leukemia
[14] = tested on: SF-268 CNS
[15] = tested on: MOLT-4 leukemia
[16] = tested on: RPMI-8226 leukemia
[17] = tested on: SNB-19 CNS
[18] = tested on: CCRF-CEM leukemia
[19] = tested on: PC-3 prostate
[20] = tested on: A498 renal
[21] = tested on: UO-31 renal
[22] = tested on: SK-MEL-2 melanoma
[23] = tested on: OVCAR-3 ovarian
[24] = tested on: UACC-257 melanoma
[25] = tested on: RXF 393 renal
[26] = tested on: MDA-N
[27] = tested on: LOX IMVI melanoma
[28] = tested on: HCT-116 colon
[29] = tested on: U251 CNS
[30] = tested on: ACHN renal
[31] = tested on: NCI-H23 lung
[32] = tested on: HCT-15 colon
[33] = tested on: DU-145 prostate
[34] = tested on: SK-MEL-5 melanoma
[35] = tested on: COLO 205 colon
[36] = tested on: HT29 colon
[37] = tested on: BT-549 breast
[38] = tested on: HOP-62 NSCLC
[39] = tested on: SF-539 CNS
[40] = tested on: M14 melanoma
[41] = tested on: SF-295 CNS
[42] = tested on: NCI-H226 lung
[43] = tested on: K-562 leukemia
[44] = tested on: UACC-62 melanoma
[45] = tested on: CAKI-1 renal
[46] = tested on: OVCAR-8 ovarian
[47] = tested on: OVCAR-4 ovarian
[48] = tested on: SK-MEL-28 melanoma
[49] = tested on: NCI/ADR-RES ovarian
[50] = tested on: SK-OV-3 ovarian
[51] = tested on: SNB-75 CNS
[52] = tested on: SW-620 colon
[53] = tested on: SN12C renal
[54] = tested on: HS 578T breast
[55] = tested on: TK-10 renal
[56] = tested on: OVCAR-5 ovarian
[57] = tested on: SR leukemia
[58] = tested on: MDA-MB-231 breast
[59] = tested on: MCF7 breast

For `COC(=O)c1cc2c3c(c1)Oc1cc(C(=O)OC)cc4c1C3c1c(cc(C(=O)OC)cc1O4)O2`, the TGI [1] was 46.4 µM, the TGI [2] was 26.5 µM and the TGI [3] was > 31.6 µM. The TGI [4] was > 49.7 µM, the TGI [5] was 15.5 µM and the TGI [6] was 23 µM. For the same compound, the TGI [7] was > 100 µM, the TGI [8] was > 100 µM and the TGI [9] was 37.2 µM. For the same compound, the TGI [10] was > 48.3 µM, the TGI [11] was > 100 µM and the TGI [12] was > 100 µM. The TGI [13] was > 29.3 µM, the TGI [14] was 30 µM and the TGI [15] was > 100 µM. For the same compound, the TGI [16] was > 100 µM, the TGI [17] was > 62.9 µM and the TGI [18] was 96.9 µM. The TGI [19] was > 53.6 µM, the TGI [20] was > 94.6 µM and the TGI [21] was > 100 µM. For the same compound, the TGI [22] was > 100 µM, the TGI [23] was 33 µM and the TGI [24] was > 100 µM. For the same compound, the TGI [25] was 16.5 µM, the TGI [26] was > 100 µM and the TGI [27] was > 46.1 µM. The TGI [28] was > 100 µM, the TGI [29] was 41.8 µM and the TGI [30] was 26.2 µM. The TGI [31] was > 72 µM, the TGI [32] was > 100 µM and the TGI [33] was > 41.3 µM. The TGI [34] was 14.3 µM, the TGI [35] was > 91.5 µM and the TGI [36] was 38.3 µM. For the same compound, the TGI [37] was > 100 µM, the TGI [38] was 23.5 µM and the TGI [39] was 33 µM. The TGI [40] was > 95.7 µM, the TGI [41] was 26.4 µM and the TGI [42] was 13.6 µM. The TGI [43] was > 100 µM, the TGI [44] was > 75.5 µM and the TGI [45] was 27.8 µM. For the same compound, the TGI [46] was 17.1 µM, the TGI [47] was > 100 µM and the TGI [48] was > 100 µM. It also gave a TGI [49] of 13 µM, a TGI [50] of 42.4 µM and a TGI [51] of 20 µM. The TGI [52] was > 100 µM, the TGI [53] was > 100 µM and the TGI [54] was 41.1 µM. For the same compound, the TGI [55] was > 56.9 µM, the TGI [56] was > 66.1 µM and the TGI [57] was > 100 µM. The TGI [58] was > 100 µM and the TGI [59] was > 56.3 µM.
`CC(C)[Si]1(C(C)C)OCC2OC(N3C(=O)NC(=O)C[C@@H]3C(O)c3ccccc3)CC2O[Si](C(C)C)(C(C)C)O1` (stereo partly drawn) showed a TGI [1] of 23.4 µM, a TGI [2] of 17.6 µM and a TGI [3] of 20.4 µM. It also gave a TGI [4] of 7.1 µM, a TGI [5] of 7.77 µM and a TGI [6] of 12.5 µM. It also gave a TGI [7] of 4.46 µM, a TGI [8] of 18.2 µM and a TGI [9] of 12.8 µM. For the same compound, the TGI [10] was 24.1 µM, the TGI [11] was 34.3 µM and the TGI [12] was 14.7 µM. It also gave a TGI [13] of 21.6 µM, a TGI [14] of 10.6 µM and a TGI [15] of 9.31 µM. For the same compound, the TGI [16] was 12.2 µM, the TGI [17] was 25.4 µM and the TGI [18] was 8.46 µM. For the same compound, the TGI [19] was 15.3 µM, the TGI [20] was 17.7 µM and the TGI [21] was 24.8 µM. It also gave a TGI [22] of 27.3 µM, a TGI [23] of 11.4 µM and a TGI [24] of 16.5 µM. For the same compound, the TGI [25] was 13.4 µM, the TGI [26] was 9.61 µM and the TGI [27] was 10.7 µM. For the same compound, the TGI [28] was 9.79 µM, the TGI [29] was 9.06 µM and the TGI [30] was 19.7 µM. For the same compound, the TGI [31] was 21.6 µM, the TGI [32] was 18.1 µM and the TGI [33] was 26.5 µM. For the same compound, the TGI [34] was 26.3 µM, the TGI [35] was 25.8 µM and the TGI [36] was 6.59 µM. For the same compound, the TGI [37] was 33.4 µM, the TGI [38] was 27.5 µM and the TGI [39] was 32.4 µM. The TGI [40] was 30.1 µM, the TGI [41] was 9.97 µM and the TGI [42] was 8.9 µM. For the same compound, the TGI [43] was > 30.2 µM, the TGI [44] was 22.4 µM and the TGI [45] was 30.7 µM. For the same compound, the TGI [46] was 17.3 µM, the TGI [47] was 14.8 µM and the TGI [48] was 12.9 µM. The TGI [49] was 13.4 µM, the TGI [50] was 11.8 µM and the TGI [51] was 17.6 µM. The TGI [52] was 9 µM, the TGI [53] was 12.2 µM and the TGI [54] was 8.71 µM. For the same compound, the TGI [55] was 24 µM, the TGI [56] was 27.6 µM and the TGI [57] was > 19.8 µM. It also gave a TGI [58] of 12.1 µM and a TGI [59] of 15.2 µM.

— PubChem BioAssay (NCI)
